Reference: patent publication US11999803B2, “Proteasome inhibitors” (University of Kentucky Research Foundation, priority 2018, dated 2024)

What was measured:
LMP2 [1] = experiment: LMP2 inhibition (figure legend); assay type: biochemical
[2] = test system: LPS-stimulated BV-2 cells; experiment: Cytokine and chemokine protein array in LPS-stimulated BV-2 cells; assay type: cell-based; details: 3 μM with LPS (1 μg/mL)
Method: With reference to FIG. 2, cytokine production was assessed in LPS-stimulated BV-2 cells. Cytokine and chemokine protein array blots were obtained from BV-2 cells treated with vehicle, LPS (1 μg/mL) alone, and YU102 (3 μM) or ONX0914 (3 μM) with LPS (1 μg/mL). The signal intensity of each cytokine or chemokine was expressed relative to the mean of the intensity of the corresponding spots from vehicle control sample. The bar graph depicts the fold change of each cytokine or chemokine (mean).

[3] = test system: APP transgenic mouse model of AD (Tg2576); experiment: Probe trial in Tg2576 mice; assay type: in vivo; details: Student's t-test, p-value<0.05, n=8
Method: (§1) FIG. 1A includes a schematic illustration showing the experimental schedule for a behavior test to assess cognitive impairment following administration of YU102 or YU102 epimer, as compared to control. YU102 is an inhibitor of the immunoproteasome subunit LMP2.
(§2) With reference to FIG. 1C, upon the completion of the Morris water maze test, Tg2576 mice were evaluated in the probe trial (left) and passive avoidance test (right). Statistical analyses of probe trial and passive avoidance were performed via Student's t-test.

LMP2 [4] = target: T1, LMP2 (Mus musculus, UniProt P28076); experiment: Proteasome activities in tissue of treated mice, fluorogenic substrates; assay type: in vivo; details: Tg2576 mice, p-value<0.05, n=3
T1 construct: proteasome activities in brain, spleen, and liver tissue collected from mice treated with vehicle (control), YU102 (10 mg/kg); from tissue; host or cells: brain, spleen and liver tissue of Tg2576 mice
Method: With reference to FIG. 1D, proteasome activities in brain, spleen, and liver tissue collected from mice treated with vehicle (control), YU102 (10 mg/kg), or YU102 epimer (10 mg/kg) were measured using fluorogenic substrates.

[5] = test system: APP transgenic mouse model of AD (Tg2576); experiment: Passive avoidance test in Tg2576 mice; assay type: in vivo; details: Student's t-test, p-value<0.05, n=8
Method: as §1, §2

[6] = test system: APP transgenic mouse model of AD (Tg2576); experiment: Morris water maze test in Tg2576 mice; assay type: in vivo
Method: as §1
With reference to FIG. 1B, cognitive function in Tg2576 mice was evaluated by the Morris water maze test, and escape latency time (left) and escape distance of the mice (right) was assessed. Statistical analyses of escape latency and escape distance were performed via two-way ANOVA.

CC(=O)NCC(=O)N1CCC[C@H]1C(=O)N[C@@H](Cc1ccccc1)C(=O)N[C@@H](CC(C)C)C(=O)[C@]1(C)CO1 [YU102 epi] was tested, and the LMP2 inhibition (LMP2 [1]) was “does not inhibit LMP2”.

In the case of CC(=O)NCC(=O)N1CCC[C@H]1C(=O)N[C@@H](Cc1ccccc1)C(=O)N[C@@H](CC(C)C)C(=O)[C@@]1(C)CO1 [YU102], the cytokine production [2] is reported as “suppression of cytokine production”, the “time spent in target quadrant, difference between control and treated mice” value [3] is reported as “statistically significant” and the “LMP2 inhibitory activity in spleen and liver tissues, difference between YU102-treated and YU102 epi-treated group” value (LMP2 [4]; 10 mg/kg each) is reported as “statistically significant”. For the same molecule, the “LMP2 inhibitory activity in spleen and liver tissues, difference between control and treated group” value (LMP2 [4]; 10 mg/kg) was “statistically significant”, the “step through latency, difference between control and treated mice” value [5] was “statistically significant” and the cognitive deficits ([6]; APPsw (Tg2576) mice, FIGS. 1A-1D) was “amelioration of cognitive deficits”. For the same molecule, the “escape distance, difference between control and treated mice” value ([6]; Tg2576 mice, days 3-5, two-way ANOVA, p-value<0.05, n=8) was “statistically significant” and the LMP2 inhibition (LMP2 [1]) was “selective LMP2 inhibitor”.
